Here are results for nine molecules from patent US10098878B2, “HIF-2α inhibitors for treating iron overload disorders” (The Board of Regents of the University of Texas System, priority 2014, dated 2018).

The target in assay [1] is T1, HIF-2α HIS TAG-PASB Domain (Homo sapiens, UniProt Q99814).
T1 construct: 100 nM HIF-2α HIS TAG-PASB Domain
The assay can be described thus: HIF-2α Scintillation Proximity Assay (SPA). The class given is binding. The note with it: 100 nM HIF-2α HIS TAG-PASB Domain. The method in brief:
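IC50 values rest on percent inhibition, where the sample signal is scaled between high and low controls. Wells contain about 100 μL: compound dispensed as 2 μL of DMSO solution, 88 μL protein-probe mix and 10 μL of beads.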
On the technique in general: SPA uses beads or plates that emit light when radiolabelled molecules are held near them.

For assay [2], the system named is 786-0 cells. The assay can be described thus: VEGF ELISA Assay. Type of assay: cell-based. The note with it: Homo sapiens, VEGFA concentration in cell culture medium, read-out: VEGF ELISA EC50. Here is the method:
Each concentration had duplicated wells. About 20 hours later, medium was removed by suction and each well was supplied with 180 μL of growth medium. About 20 μl freshly-made 10× compound stocks were added to each well. […] The EC50 was calculated by GraphPad Prism using the dose-response-inhibition (four parameter) equation. The cell seeded plate was then subjected to CellTiter-Glo luminescence cell viability assay (Promega) by adding 50 μL of Celltiter Glo reagent into each well and shaking the plate for 8 minutes at 550 rpm (Thermomixer R, Eppendorf) then read luminescence signal in plate reader (3 second delay, 0.5 second/well integration time, Synergy 2 multi Detection Microplate reader) immediately.
A general note: ELISA stands for enzyme-linked immunosorbent assay.

Assay [3] deals with 786-O-Hif-Luc cells. Put plainly: Luciferase Assay. Type of assay: cell-based. The note with it: 786-O-Hif-Luc cells, about 24 hours, read-out: Luciferase EC50. As for the experimental part:
A pool of infected cells were then selected against 2 μg/mL of puromycin (P8833, Sigma) for 10 days followed by limited dilution to select single clones.
Each concentration was tested in triplicate. After about 24 hours, luciferase activity was determined using ONE-Glo Luciferase Assay Reagent (E6110, Promega) following the manufacturer's recommended procedure. EC50 were calculated by using Dotmatics software.

Where [4] appears, read: SPA IC50, 150 nM Compound 211 probe.
Setting [5] is: 150 nM Compound 211 probe, read-out: SPA IC50.

Like-named read-outs stand apart in the source and are kept apart here. A value given as a limit tells only on which side of the number the result lay.

T1 sequence (Q99814 240-350 limits assumed): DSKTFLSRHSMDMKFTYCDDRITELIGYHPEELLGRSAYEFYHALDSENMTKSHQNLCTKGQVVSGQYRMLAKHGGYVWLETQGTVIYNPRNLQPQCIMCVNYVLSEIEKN

In the case of `O=S1(=O)c2ccc(Oc3cc(F)cc(Cl)c3)c(C(F)F)c2C(O)C1(F)F` (stereo not drawn) [Compound 128, 5-(3-Chloro-5-fluorophenoxy)-4-(difluoromethyl)-2,2-difluoro-3-hydroxy-2,3-dihydrobenzo[b]thiophene 1,1-dioxide], in assay [1] (setting [4]), the IC50 (usually the point on the concentration scale where inhibition reaches its midpoint) is less than 5 nM. Also, the results for the 50% effective concentration (EC50) in assay [2] (786-0 cells) and in assay [3] were 29 nM and 17 nM, respectively.
`NC1c2c(ccc(Oc3cc(F)cc(F)c3)c2C(F)F)S(=O)(=O)C1(F)F` (stereo not drawn) [Compound 129, 3-Amino-4-(difluoromethyl)-5-(3,5-difluorophenoxy)-2,2-difluoro-2,3-dihydrobenzo[b]thiophene 1,1-dioxide]: the 50% inhibitory concentration (IC50) in assay [1] (setting [5]) was less than 5 nM. The 50% effective concentration (EC50) (commonly the concentration at which the effect is half-maximal) turned out to be 87 nM in assay [2] (786-0, 786-0 cells) and 68 nM in assay [3] (24 h).
On to `N#Cc1cc(F)cc(Oc2ccc3c(c2C(F)F)C(N)C(F)(F)S3(=O)=O)c1` (stereo not drawn) [Compound 136, 3-((3-Amino-4-(difluoromethyl)-2,2-difluoro-1,1-dioxido-2,3-dihydrobenzo[b]thiophen-5-yl)oxy)-5-fluorobenzonitrile], for which, in assay [1] (setting [5]), the half-maximal inhibitory concentration (IC50) was less than 5 nM. Also, the 50% effective concentration (EC50) in assay [2] (786-0 cells) came to 200 nM; in assay [3] it was 110 nM.
Turning to `N#Cc1cc(F)cc(Oc2ccc3c(c2C(F)F)[C@@H](N)C(F)(F)S3(=O)=O)c1` [Compound 151, (R)-3-((3-Amino-4-(difluoromethyl)-2,2-difluoro-1,1-dioxido-2,3-dihydrobenzo[b]thiophen-5-yl)oxy)-5-fluorobenzonitrile], in assay [1] (setting [5]), the 50% inhibitory concentration (IC50) turned out to be 69 nM. For the same molecule, the EC50 in assay [2] (786-0 cells) stood at 680 nM; in assay [3] it was 139 nM.
The molecule `O=S1(=O)c2ccc(Oc3cc(F)cc(Cl)c3)c(Br)c2[C@@H](O)C1(F)F` [Compound 167, (3R)-4-Bromo-5-(3-chloro-5-fluoro-phenoxy)-2,2-difluoro-1,1-dioxo-3H-benzothiophen-3-ol] had a half-inhibitory concentration (IC50) in assay [1] (setting [4]) of less than 5 nM. For the same molecule, the EC50 in assay [2] (786-0 cells) was found to be 45 nM; in assay [3], 37 nM.
Take `O=S1(=O)c2ccc(Oc3cncc(Cl)c3)c(Br)c2[C@@H](O)C1(F)F` [Compound 185, (R)-4-bromo-5-((5-chloropyridin-3-yl)oxy)-2,2-difluoro-3-hydroxy-2,3-dihydrobenzo[b]thiophene 1,1-dioxide]: the IC50 in assay [1] (setting [5]) was 124 nM. Further, the EC50 in assay [2] (786-0, 786-0 cells) amounted to 178 nM; in assay [3] (24 h), 98 nM.
Regarding `N#Cc1cncc(Oc2ccc3c(c2Br)[C@@H](O)C(F)(F)S3(=O)=O)c1` [Compound 188, (R)-5-((4-Bromo-2,2-difluoro-3-hydroxy-1,1-dioxido-2,3-dihydrobenzo[b]thiophen-5-yl)oxy)nicotinonitrile], the 50% inhibitory concentration (IC50) in assay [1] (setting [5]) is 116 nM. For the same molecule, the concentration for a half-maximal effect (EC50) is 327 nM in assay [2] (786-0, 786-0 cells) and 96 nM in assay [3] (24 h).
For `N#Cc1cc(F)cc(Oc2ccc3c(c2Cl)[C@@H](O)C(F)(F)S3(=O)=O)c1` [Compound 195, (R)-3-((4-chloro-2,2-difluoro-3-hydroxy-1,1-dioxido-2,3-dihydrobenzo[b]thiophen-5-yl)oxy)-5-fluorobenzonitrile], in that order: 11 nM, 77 nM and 47 nM.
For `CC1(O)c2c(ccc(Oc3cc(F)cc(F)c3)c2C#N)S(=O)(=O)C1(F)F` (stereo not drawn) [Compound 210, 5-(3,5-Difluorophenoxy)-2,2-difluoro-3-hydroxy-3-methyl-2,3-dihydrobenzo[b]thiophene-4-carbonitrile 1,1-dioxide], in that order: 41 nM, 18 nM and 22 nM.
